Like-named read-outs stand apart in the source and are kept apart here. Bridge positions count the residues as written; N and C are the ends. Square brackets hold non-standard residues; d marks the D form. Ends that are not written are not given here. * marks the point of attachment. NHOH = ON*
Key:
[1] = biological target: C. elegans iPGM (Caenorhabditis elegans, UniProt G5EFZ1); test: SPR binding kinetics and saturation binding, biotinylated iPGM on Biotin CAPture chip (Biacore S200)
[2] = biological target: T1, B. malayi iPGM (Brugia malayi, UniProt Q4VWF8); test: biochemical; assay type: binding; details: for Kd: Supplementary Table 5, SPR, B.m. iPGM, unit inferred
T1 sequence (Q4VWF8 1-515): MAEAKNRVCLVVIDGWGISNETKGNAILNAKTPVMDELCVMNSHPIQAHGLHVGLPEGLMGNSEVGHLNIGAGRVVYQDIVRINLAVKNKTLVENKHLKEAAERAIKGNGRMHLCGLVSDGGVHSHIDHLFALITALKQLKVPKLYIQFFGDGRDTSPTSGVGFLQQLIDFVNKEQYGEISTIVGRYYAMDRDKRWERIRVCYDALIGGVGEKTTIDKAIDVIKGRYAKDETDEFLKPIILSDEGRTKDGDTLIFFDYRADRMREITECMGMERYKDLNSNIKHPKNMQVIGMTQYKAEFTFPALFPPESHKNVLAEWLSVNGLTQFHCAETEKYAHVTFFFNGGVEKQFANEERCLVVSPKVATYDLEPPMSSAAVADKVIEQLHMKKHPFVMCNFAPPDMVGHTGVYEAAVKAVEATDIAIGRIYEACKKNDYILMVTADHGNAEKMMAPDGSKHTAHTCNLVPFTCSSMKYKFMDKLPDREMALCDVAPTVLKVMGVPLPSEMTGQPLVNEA

[3] = biological target: T2, E. coli iPGM (Escherichia coli, UniProt P37689); test: SPR binding kinetics and saturation binding, biotinylated iPGM on Biotin CAPture chip (Biacore S200); details: for koff / kon: LoQ = limit of quantitation
[4] = biological target: D. immitis iPGM (Dirofilaria immitis, UniProt F4ZE01); test: biochemical
[5] = biological target: T2, E. coli iPGM; test: biochemical; details: […]
[6] = biological target: T3, Ce-2 Thr13Ser (synthetic construct, thioether N-8); test: SPR
T3 chain: {CH2CO}-[dY]DYPGDYCYLYGSC

[7] = biological target: T4, Ce-2 (synthetic construct, thioether N-8); test: SPR
T4 chain: {CH2CO}-[dY]DYPGDYCYLYGTC

[8] = biological target: T5, Ce-1 NHOH (synthetic construct, thioether N-8; SMILES …); test: SPR
T5 chain: {CH2CO}-[dY]DYPGDHCYLYGT-{NHOH}

[9] = Supplementary Table 5, SPR, E.c. iPGM
[10] = Supplementary Table 5, SPR, E.c. iPGM, unit inferred
[11] = SPR, 25 °C, global fit to 1:1 binding model

| Molecule | Kd [1] | koff [1] | kon [1] | koff [2] | kon [2] | Kd [2] | koff [3, 9] | kon [3, 9] | Kd [3, 10] | IC50 ([4]; Di iPGM Ave IC50 (M)) | IC50 [5] | Kd [6] | Kd [7] | Kd [8] | also measured |
| --- | --- | --- | --- | --- | --- | --- | --- | --- | --- | --- | --- | --- | --- | --- | --- |
| CC(C)C[C@H](NC(=O)[C@H](Cc1ccc(O)cc1)NC(=O)[C@@H]1CSCC(=O)N[C@H](Cc2ccc(O)cc2)C(=O)N[C@@H](CC(=O)O)C(=O)N[C@@H](Cc2ccc(O)cc2)C(=O)N2CCC[C@H]2C(=O)NCC(=O)N[C@@H](CC(=O)O)C(=O)N[C@@H](Cc2ccc(O)cc2)C(=O)N1)C(=O)N[C@@H](Cc1ccc(O)cc1)C(=O)NCC(=O)NCC(=O)N[C@@H](CS)C(N)=O [Ce-2 T13G] | 0.0433 nM | 5.77e-05 s⁻¹ | 1.32e+06 M⁻¹ s⁻¹ | 6.11e-05 s⁻¹ | 1.19e+06 M⁻¹ s⁻¹ | 0.0493 nM | 0.00133 s⁻¹ | 299000 M⁻¹ s⁻¹ | 10.8 nM | 1.08e-09 M | 99.4 nM |  |  |  | IC50 ([4]; IC50 (M)): 9.2e-10 M |
| CC(C)C[C@H](NC(=O)[C@H](Cc1ccc(O)cc1)NC(=O)[C@@H]1CSCC(=O)N[C@H](Cc2ccc(O)cc2)C(=O)N[C@@H](CC(=O)O)C(=O)N[C@@H](Cc2ccc(O)cc2)C(=O)N2CCC[C@H]2C(=O)NCC(=O)N[C@@H](CC(=O)O)C(=O)N[C@@H](Cc2c[nH]cn2)C(=O)N1)C(=O)N[C@@H](Cc1ccc(O)cc1)C(=O)NCC(=O)N[C@H](C(=O)NO)[C@@H](C)O [Ce-1 NHOH] | 0.109 nM | 0.000171 s⁻¹ | 1.86e+06 M⁻¹ s⁻¹ | 0.00148 s⁻¹ | 203000 M⁻¹ s⁻¹ | 11.5 nM | 0.914 s⁻¹ | 181000 M⁻¹ s⁻¹ | 5140 nM | 2.92e-09 M | 8970 nM |  |  |  | koff [1, 11]: 7.8e-05 s⁻¹; kon [1, 11]: 1.9e+06 M⁻¹ s⁻¹; koff [2, 11]: 0.0015 s⁻¹; kon [2, 11]: 200000 M⁻¹ s⁻¹; t½ ([3]; SPR, dissociation half-life): ≤1 s; Kd ([3]; SPR, Req hyperbolic fit where steady state reached, else koff/kon): 5000 nM |
| iPGM (protein) MLVSKKPMVLVILDGYGYREEQQDNAIFSAKTPVMDALWANRPHTLIDASGLEVGLPDRQMGNSEVGHVNLGAGRIVYQDLTRLDVEIKDRAFFANPVLTGAVDKAKNAGKAVHIMGLLSAGGVHSHEDHIMAMVELAAERGAEKIYLHAFLDGRDTPPRSAESSLKKFEEKFAALGKGRVASIIGRYYAMDRDNRWDRVEKAYDLLTLAQGEFQADTAVAGLQAAYARDENDEFVKATVIRAEGQPDAAMEDGDALIFMNFRADRAREITRAFVNADFDGFARKKVVNVDFVMLTEYAADIKTAVAYPPASLVNTFGEWMAKNDKTQLRISETEKYAHVTFFFNGGVEESFKGEDRILINSPKVATYDLQPEMSSAELTEKLVAAIKSGKYDTIICNYPNGDMVGHTGVMEAAVKAVEALDHCVEEVAKAVESVGGQLLITADHGNAEQMRDPATGQAHTAHTNLPVPLIYVGDKNVKAVEGGKLSDIAPTMLSLMGMEIPQEMTGKPLFIVE |  |  |  |  |  |  |  |  |  |  |  | 1.3 nM | 69 nM | 5000 nM |  |
| iPGM (protein) MFVALGAQIYRQYFGRRGMAMANNSSVANKVCLIVIDGWGVSEDPYGNAILNAQTPVMDKLCSGNWAQIEAHGLHVGLPEGLMGNSEVGHLNIGAGRVIYQDIVRINLAVKNNKFVTNESLVDACDRAKNGNGRLHLAGLVSDGGVHSHIDHMFALVKAIKELGVPELYLHFYGDGRDTSPNSGVGFLEQTLEFLEKTTGYGKLATVVGRYYAMDRDNRWERINVAYEAMIGGVGETSDEAGVVEVVRKRYAADETDEFLKPIILQGEKGRVQNDDTIIFFDYRADRMREISAAMGMDRYKDCNSKLAHPSNLQVYGMTQYKAEFPFKSLFPPASNKNVLAEWLAEQKVSQFHCAETEKYAHVTFFFNGGLEKQFEGEERCLVPSPKVATYDLQPEMSAAGVADKMIEQLEAGTHPFIMCNFAPPDMVGHTGVYEAAVKACEATDIAIGRIYEATQKHGYSLMVTADHGNAEKMKAPDGGKHTAHTCYRVPLTLSHPGFKFVDPADRHPALCDVAPTVLAIMGLPQPAEMTGVSIVQKI |  |  |  |  |  |  |  |  |  |  |  | 0.029 nM | 0.038 nM | 0.11 nM |  |

From PMC8113725, “Structure–activity relationship of ipglycermide binding to phosphoglycerate mutases” (The Journal of Biological Chemistry, 2021)
